Data reported in ChEMBL document CHEMBL1145880, “Aryl piperazine melanocortin MC4 receptor agonists” (Bioorg Med Chem Lett, 2003).

Experiments:
Melanocortin receptor 4 [1] = molecular target: T1, Melanocortin receptor 4 (Homo sapiens, UniProt P32245); assay: cAMP accumulation in HEK cells transfected with human melanocortin 4 receptor (hMC4R) with respect to alpha-MSH; assay type: functional, cell-based; details: HEK293
Melanocortin receptor 4 [2] = molecular target: T1, Melanocortin receptor 4; assay: Agonistic activity measured as […] cAMP accumulation in HEK cells expressing human Melanocortin 4 receptor (hMC4R); assay type: functional, cell-based, HEK293
[3] = molecular target: Adrenocorticotropic hormone receptor (Mus musculus, UniProt Q64326); assay: In vitro cAMP accumulation in Y1 cells transfected with mouse Melanocortin 2 receptor (mMC2R); assay type: functional, cell-based
Adrenocorticotropic hormone receptor, sequence (Q64326 whole entry): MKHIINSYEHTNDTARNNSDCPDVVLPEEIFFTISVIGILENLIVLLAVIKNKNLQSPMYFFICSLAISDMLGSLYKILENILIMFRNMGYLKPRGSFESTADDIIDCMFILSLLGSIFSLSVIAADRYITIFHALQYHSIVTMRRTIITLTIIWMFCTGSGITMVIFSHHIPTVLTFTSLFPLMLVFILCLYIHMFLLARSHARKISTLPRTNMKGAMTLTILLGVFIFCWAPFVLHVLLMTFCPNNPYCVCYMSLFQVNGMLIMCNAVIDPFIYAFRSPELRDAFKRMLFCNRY

Melanocortin receptor 5 = Melanocortin receptor 5 (Homo sapiens, UniProt P33032); assay: In vitro cAMP accumulation in HEK cells transfected with human Melanocortin 5 receptor (hMC5R); assay type: functional, cell-based, HEK293
Melanocortin receptor 5, sequence (P33032 whole entry): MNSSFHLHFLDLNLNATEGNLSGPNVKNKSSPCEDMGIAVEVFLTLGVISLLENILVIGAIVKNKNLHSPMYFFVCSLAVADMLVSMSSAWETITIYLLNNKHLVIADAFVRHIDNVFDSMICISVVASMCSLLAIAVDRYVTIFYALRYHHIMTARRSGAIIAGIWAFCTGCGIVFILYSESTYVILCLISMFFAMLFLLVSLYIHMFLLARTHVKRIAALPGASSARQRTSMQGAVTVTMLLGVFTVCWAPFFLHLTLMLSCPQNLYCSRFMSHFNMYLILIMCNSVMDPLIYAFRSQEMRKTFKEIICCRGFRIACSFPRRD

[4] = molecular target: Melanocyte-stimulating hormone receptor (Homo sapiens, UniProt Q01726); assay: In vitro cAMP accumulation in HEK cells transfected with human Melanocortin 1 receptor (hMC1R); assay type: functional, cell-based, HEK293
Melanocyte-stimulating hormone receptor, sequence (Q01726 whole entry): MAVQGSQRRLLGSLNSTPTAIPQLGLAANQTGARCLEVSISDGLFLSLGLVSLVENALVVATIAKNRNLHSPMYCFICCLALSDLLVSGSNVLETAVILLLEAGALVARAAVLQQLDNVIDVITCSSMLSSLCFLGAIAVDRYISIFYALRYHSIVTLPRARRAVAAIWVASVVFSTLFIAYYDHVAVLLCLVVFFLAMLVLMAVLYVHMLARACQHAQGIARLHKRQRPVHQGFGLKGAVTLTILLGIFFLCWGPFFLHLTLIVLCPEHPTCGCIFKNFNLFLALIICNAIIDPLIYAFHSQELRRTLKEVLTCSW

Melanocortin receptor 4 [5] = molecular target: Melanocortin receptor 4 (Mus musculus, UniProt P56450); assay: In vitro cAMP accumulation in Y1 cells transfected with mouse Melanocortin 4 receptor (mMC4R); assay type: functional, cell-based
Melanocortin receptor 4 (Mus musculus, UniProt P56450), sequence (P56450 whole entry): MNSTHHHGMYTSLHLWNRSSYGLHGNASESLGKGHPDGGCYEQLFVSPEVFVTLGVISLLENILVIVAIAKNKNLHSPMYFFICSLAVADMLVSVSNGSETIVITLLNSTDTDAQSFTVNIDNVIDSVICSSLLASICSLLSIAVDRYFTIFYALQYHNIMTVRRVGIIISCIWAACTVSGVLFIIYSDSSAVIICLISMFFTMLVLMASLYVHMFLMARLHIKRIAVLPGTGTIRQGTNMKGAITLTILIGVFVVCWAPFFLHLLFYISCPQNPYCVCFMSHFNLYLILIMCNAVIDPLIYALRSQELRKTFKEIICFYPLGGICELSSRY

Melanocortin receptor 3 = Melanocortin receptor 3 (Homo sapiens, UniProt P41968); assay: In vitro cAMP accumulation in HEK cells transfected with human Melanocortin 3 receptor (hMC3R); assay type: functional, cell-based, HEK293
Melanocortin receptor 3, sequence (P41968 whole entry): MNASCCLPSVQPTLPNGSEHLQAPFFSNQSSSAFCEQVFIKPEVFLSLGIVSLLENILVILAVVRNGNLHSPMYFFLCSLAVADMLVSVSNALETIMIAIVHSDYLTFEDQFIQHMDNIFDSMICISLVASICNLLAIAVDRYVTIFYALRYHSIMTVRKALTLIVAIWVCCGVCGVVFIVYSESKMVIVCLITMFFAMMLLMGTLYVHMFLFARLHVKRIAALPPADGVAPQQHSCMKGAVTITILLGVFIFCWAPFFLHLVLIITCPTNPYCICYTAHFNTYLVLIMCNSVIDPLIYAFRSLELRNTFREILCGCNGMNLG

Melanocortin receptor 4 [6] = molecular target: T1, Melanocortin receptor 4; assay: cAMP accumulation in HEK cells transfected with human Melanocortin 4 receptor (hMC4R) with respect to alpha-MSH; assay type: functional, cell-based; details: HEK293

T1 sequence (P32245 whole entry): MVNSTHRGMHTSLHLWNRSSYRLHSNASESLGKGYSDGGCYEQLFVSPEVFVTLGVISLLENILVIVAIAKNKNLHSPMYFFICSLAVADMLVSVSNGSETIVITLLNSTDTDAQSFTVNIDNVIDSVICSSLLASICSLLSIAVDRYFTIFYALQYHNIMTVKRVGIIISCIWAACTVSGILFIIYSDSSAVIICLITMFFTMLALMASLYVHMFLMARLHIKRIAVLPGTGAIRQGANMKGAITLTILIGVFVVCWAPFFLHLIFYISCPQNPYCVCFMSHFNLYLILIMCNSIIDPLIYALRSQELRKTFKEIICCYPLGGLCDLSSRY

SMILES	Stimulation (Melanocortin receptor 4 [1])	EC50 (Melanocortin receptor 4 [2])	other results
CC(C)S(=O)(=O)Nc1ccccc1N1CCN(C(=O)[C@@H](Cc2ccc(Cl)cc2)NC(=O)[C@H]2Cc3ccccc3CN2)CC1	85%	0.44 µM	
CCN(Cc1ccccc1N1CCN(C(=O)[C@@H](Cc2ccc(Cl)cc2)NC(=O)[C@H]2Cc3ccccc3CN2)CC1)S(C)(=O)=O	100%	0.69 µM	
O=C(Nc1ccccc1N1CCN(C(=O)[C@@H](Cc2ccc(Cl)cc2)NC(=O)[C@H]2Cc3ccccc3CN2)CC1)c1ccncc1			Fold stimulation (Melanocortin receptor 4 [6]): 30%
O=C(Nc1ccccc1N1CCN(C(=O)[C@@H](Cc2ccc(Cl)cc2)NC(=O)[C@H]2Cc3ccccc3CN2)CC1)C1CC1			Fold stimulation (Melanocortin receptor 4 [6]): 21%
CN(C)C(=O)Nc1ccccc1N1CCN(C(=O)[C@@H](Cc2ccc(Cl)cc2)NC(=O)[C@H]2Cc3ccccc3CN2)CC1			Fold stimulation (Melanocortin receptor 4 [6]): 7%
O=C(N[C@H](Cc1ccc(Cl)cc1)C(=O)N1CCN(c2ccccc2Cn2cnnc2)CC1)[C@H]1Cc2ccccc2CN1	100%	0.024 µM	EC50 [3]: > 10 µM; EC50 (Melanocortin receptor 5): > 3 µM; EC50 [4]: > 3 µM; EC50 (Melanocortin receptor 4 [5]): 0.038 µM; EC50 (Melanocortin receptor 3): > 3 µM
CCOC(=O)CNC(=O)Nc1ccccc1N1CCN(C(=O)[C@@H](Cc2ccc(Cl)cc2)NC(=O)[C@H]2Cc3ccccc3CN2)CC1	68%	2.1 µM	
CC(C)(C)CN(Cc1ccccc1N1CCN(C(=O)[C@@H](Cc2ccc(Cl)cc2)NC(=O)[C@H]2Cc3ccccc3CN2)CC1)S(C)(=O)=O	100%	2.4 µM	
O=C(N[C@H](Cc1ccc(Cl)cc1)C(=O)N1CCN(c2cccc(Cl)c2Cn2cncn2)CC1)[C@H]1Cc2ccccc2CN1	70%	0.47 µM	
O=C(N[C@H](Cc1ccc(Cl)cc1)C(=O)N1CCC(Cn2cncn2)(C2CCCCC2)CC1)[C@H]1Cc2ccccc2CN1	100%		EC50 [3]: > 10 µM; EC50 (Melanocortin receptor 5): 2.7 µM; EC50 (Melanocortin receptor 4 [5]): 0.0076 µM
O=C(N[C@H](Cc1ccc(Cl)cc1)C(=O)N1CCN(c2ccccc2NS(=O)(=O)C(F)(F)F)CC1)[C@H]1Cc2ccccc2CN1	34%	4.4 µM	
O=C(Nc1ccccc1N1CCN(C(=O)[C@@H](Cc2ccc(Cl)cc2)NC(=O)[C@H]2Cc3ccccc3CN2)CC1)c1cccnc1	83%	1.1 µM	
COc1ccc(Cn2cncn2)c(N2CCN(C(=O)[C@@H](Cc3ccc(Cl)cc3)NC(=O)[C@H]3Cc4ccccc4CN3)CC2)c1	100%	0.11 µM	
CC(C)CN(Cc1ccccc1N1CCN(C(=O)[C@@H](Cc2ccc(Cl)cc2)NC(=O)[C@H]2Cc3ccccc3CN2)CC1)S(C)(=O)=O	100%	0.38 µM	

More lines, main results first:

Stimulation (Melanocortin receptor 4 [1])	EC50 (Melanocortin receptor 4 [2])	SMILES	other results
24%	0.65 µM	CCOC(=O)NC(=O)Nc1ccccc1N1CCN(C(=O)[C@@H](Cc2ccc(Cl)cc2)NC(=O)[C@H]2Cc3ccccc3CN2)CC1	
100%	0.19 µM	CS(=O)(=O)N1CC2(CCN(C(=O)[C@@H](Cc3ccc(Cl)cc3)NC(=O)[C@H]3Cc4ccccc4CN3)CC2)c2ccccc21	
100%	0.08 µM	O=C(N[C@H](Cc1ccc(Cl)cc1)C(=O)N1CCN(c2ccccc2Cn2cncn2)CC1)[C@H]1Cc2ccccc2CN1	EC50 [3]: > 10 µM; EC50 (Melanocortin receptor 5): > 3 µM; EC50 [4]: > 3 µM; EC50 (Melanocortin receptor 4 [5]): 0.059 µM; EC50 (Melanocortin receptor 3): > 3 µM
34%	0.6 µM	COCC(=O)Nc1ccccc1N1CCN(C(=O)[C@@H](Cc2ccc(Cl)cc2)NC(=O)[C@H]2Cc3ccccc3CN2)CC1	
62%	1 µM	O=C(NCc1ccccc1)Nc1ccccc1N1CCN(C(=O)[C@@H](Cc2ccc(Cl)cc2)NC(=O)[C@H]2Cc3ccccc3CN2)CC1	
100%	0.17 µM	O=C(N[C@H](Cc1ccc(Cl)cc1)C(=O)N1CCN(c2c(Cn3cncn3)ccc3ccccc23)CC1)[C@H]1Cc2ccccc2CN1	
55%	1.6 µM	COC(=O)C(=O)Nc1ccccc1N1CCN(C(=O)[C@@H](Cc2ccc(Cl)cc2)NC(=O)[C@H]2Cc3ccccc3CN2)CC1	
100%	2.2 µM	CCC(CC)N(Cc1ccccc1N1CCN(C(=O)[C@@H](Cc2ccc(Cl)cc2)NC(=O)[C@H]2Cc3ccccc3CN2)CC1)S(C)(=O)=O	
100%	1 µM	CCC(C)N(Cc1ccccc1N1CCN(C(=O)[C@@H](Cc2ccc(Cl)cc2)NC(=O)[C@H]2Cc3ccccc3CN2)CC1)S(C)(=O)=O (stereo partly drawn)	
100%	0.68 µM	O=C(N[C@H](Cc1ccc(Cl)cc1)C(=O)N1CCN(c2ccc(C(F)(F)F)cc2Cn2cncn2)CC1)[C@H]1Cc2ccccc2CN1	
100%	0.52 µM	CN(c1ccccc1N1CCN(C(=O)[C@@H](Cc2ccc(Cl)cc2)NC(=O)[C@H]2Cc3ccccc3CN2)CC1)S(C)(=O)=O	
64%	1.9 µM	CC(=O)Nc1ccccc1N1CCN(C(=O)[C@@H](Cc2ccc(Cl)cc2)NC(=O)[C@H]2Cc3ccccc3CN2)CC1	
100%	0.38 µM	CS(=O)(=O)Nc1ccccc1N1CCN(C(=O)[C@@H](Cc2ccc(Cl)cc2)NC(=O)[C@H]2Cc3ccccc3CN2)CC1	
